Assay results: US8450318B2 (priority 2007, dated 2013)
Values after ≈ are worked out from the molar mass of the structure shown. Read-outs that look alike come from different tables or passages of the source.

What was measured:
CEM cells = test: Cytostatic/cytotoxic activity, inhibition of CEM cell proliferation; conditions: Table 1; for CC50: 50% cytostatic concentration, CEM cell proliferation
HIV-2 = test: Antiretrovirus assay, HIV-2
[1] = system: human corona (SARS) virus; test: microbe, parasite or virus in culture; format: cell-based; conditions: human corona (SARS) virus
CRFK cells [2] = conditions: cytotoxicity, feline corona virus test
Feline Corona virus = test: Activity on feline corona virus in CRFK cells; format: cell-based
CRFK cells [3] = conditions: cytotoxicity, human corona virus test
Influenza A H3N2 subtype = test: Anti-influenza activity in MDCK cells, Influenza A H3N2; format: cell-based; conditions: for EC50 Influenza A H3N2 subtype MTS: cell viability, formazan-based MTS assay; for EC50 Influenza A H3N2 subtype visual CPE score: visual scoring of the CPE; for EC50: reference compounds
Text: (§1) MDCK cells (Madin Darby canine kidney cells) have been used for the experiments shown in table 5 using standard procedures known in the art.

Influenza A H1N1 subtype = test: Anti-influenza activity in MDCK cells, Influenza A H1N1; format: cell-based; conditions: for EC50 Influenza A H1N1 subtype MTS: cell viability, formazan-based MTS assay; for EC50 Influenza A H1N1 subtype visual CPE score: visual scoring of the CPE; for EC50: reference compounds
Text: as §1

Influenza B = test: Anti-influenza activity in MDCK cells, Influenza B; format: cell-based; conditions: for EC50 Influenza B MTS: cell viability, formazan-based MTS assay; for EC50 Influenza B visual CPE score: visual scoring of the CPE; for EC50: reference compounds
[4] = Table 1, CEM cells, prevention of syncytium formation by 50%, 4 to 5 days

CC(=NO)c1cccc(NCc2c(C)c(CNc3cccc(C(C)=NO)c3)c(C)c(CNc3cccc(C(C)=NO)c3)c2C)c1 [Compound 27]
EC50 HIV-1 (HIV-1; [4]): >4 µg/mL | CC50 (CEM cells): 20.4 ± 11.4 µg/mL (≈ 33.6 µM) | EC50 HIV-2 (HIV-2; Table 1): >4 µg/mL

Cc1ccc2ccc(NCc3c(C)c(CNc4ccc5ccc(C)nc5n4)c(C)c(CNc4ccc5ccc(C)nc5n4)c3C)nc2n1 [Compound 24]
Human Corona virus EC50 [1]: 38 ± 1 µg/mL | Feline Corona virus CC50 (CRFK cells [2]): >100 µg/mL | Feline Corona virus EC50 (Feline Corona virus): 42 ± 0 µg/mL | Human Corona virus CC50 (CRFK cells [3]): >100 µg/mL

Cc1cccc(NC(=O)c2cc(C(=O)Nc3cccc(C)n3)cc(C(=O)Nc3cccc(C)n3)c2)n1 [Compound 30]
EC50 HIV-1 (HIV-1; [4]): >20 µg/mL | cytotoxicity (in words) (CEM cells): low cytotoxicity | CC50 (CEM cells): >100 µg/mL | EC50 HIV-2 (HIV-2; Table 1): >20 µg/mL

CCc1c(CNc2ccc3ccc(C)nc3n2)c(CC)c(CNc2ccc3ccc(C)nc3n2)c(CC)c1CNc1ccc2ccc(C)nc2n1 [Compound 25]
EC50 HIV-1 (HIV-1; [4]): 1.25 ± 0.35 µg/mL (≈ 1.85 µM) | EC50 Influenza A H3N2 subtype MTS (Influenza A H3N2 subtype): >4 µg/mL | EC50 Influenza A H3N2 subtype visual CPE score (Influenza A H3N2 subtype): >4 µg/mL | cytotoxicity (in words) (CEM cells): low cytotoxicity | CC50 (CEM cells): 81.7 ± 26.0 µg/mL (≈ 121 µM) | EC50 Influenza A H1N1 subtype MTS (Influenza A H1N1 subtype): >4 µg/mL | EC50 Influenza A H1N1 subtype visual CPE score (Influenza A H1N1 subtype): >4 µg/mL | Human Corona virus EC50 [1]: 20 ± 5 µg/mL | EC50 HIV-2 (HIV-2; Table 1): >20 µg/mL | Feline Corona virus CC50 (CRFK cells [2]): 92 ± 9 µg/mL | Feline Corona virus EC50 (Feline Corona virus): 9.1 ± 0.4 µg/mL | EC50 Influenza B MTS (Influenza B): >4 µg/mL | EC50 Influenza B visual CPE score (Influenza B): >4 µg/mL | Human Corona virus CC50 (CRFK cells [3]): >100 µg/mL

CCc1c(CNc2cccc(C(C)=NO)c2)c(CC)c(CNc2cc(C)cc(C)n2)c(CC)c1CNc1cc(C)cc(C)n1 [ABT5]
EC50 Influenza A H3N2 subtype MTS (Influenza A H3N2 subtype): >4 µg/mL | EC50 Influenza A H3N2 subtype visual CPE score (Influenza A H3N2 subtype): >4 µg/mL | EC50 Influenza A H1N1 subtype MTS (Influenza A H1N1 subtype): >4 µg/mL | EC50 Influenza A H1N1 subtype visual CPE score (Influenza A H1N1 subtype): >4 µg/mL | EC50 Influenza B MTS (Influenza B): >4 µg/mL | EC50 Influenza B visual CPE score (Influenza B): >4 µg/mL

CCc1c(CNc2cc(C)cc(C)n2)c(CC)c(CNc2ccc3ccc(C)nc3n2)c(CC)c1CNc1ccc2ccc(C)nc2n1 [Co54]
EC50 HIV-1 (HIV-1; Table 1a): >2 µg/mL | EC50 HIV-2 (HIV-2; Table 1a): >2 µg/mL

CC(N)C12CC3CC(CC(C3)C1)C2 (centres unmarked) [Rimantadin, reference compound]
EC50 (Influenza A H3N2 subtype; MTS, read-out: EC50 Influenza A H3N2 subtype MTS): 0.9 µM | EC50 (Influenza A H3N2 subtype; visual CPE, read-out: EC50 Influenza A H3N2 subtype visual CPE score): 2.1 µM | EC50 (Influenza A H1N1 subtype; MTS, read-out: EC50 Influenza A H1N1 subtype MTS): 9.9 µM | EC50 (Influenza A H1N1 subtype; visual CPE, read-out: EC50 Influenza A H1N1 subtype visual CPE score): 8.9 µM | EC50 (Influenza B; MTS, read-out: EC50 Influenza B MTS): > 100 µM | EC50 (Influenza B; visual CPE, read-out: EC50 Influenza B visual CPE score): > 100 µM

CCc1c(CNc2cccc(CO)c2)c(CC)c(CNc2cc(C)cc(C)n2)c(CC)c1CNc1cc(C)cc(C)n1 [ABT6]
EC50 HIV-1 (HIV-1; Table 1a): >2 µg/mL | EC50 HIV-2 (HIV-2; Table 1a): >2 µg/mL

Cc1ccc(NCc2c(C)c(CNc3ccc(C)cn3)c(C)c(CNc3ccc(C)cn3)c2C)nc1 [Compound 26]
EC50 HIV-1 (HIV-1; [4]): >4 µg/mL | CC50 (CEM cells): 22.0 ± 8.2 µg/mL (≈ 45.8 µM) | EC50 HIV-2 (HIV-2; Table 1): >4 µg/mL

CCc1c(CC#N)c(CC)c(CNc2cc(C)cc(C)n2)c(CC)c1CNc1cc(C)cc(C)n1 [Co19]
EC50 HIV-1 (HIV-1; Table 1a): >2 µg/mL | EC50 HIV-2 (HIV-2; Table 1a): >2 µg/mL | Feline Corona virus CC50 (CRFK cells [2]): 10.8 µg/mL | Feline Corona virus EC50 (Feline Corona virus): >4 µg/mL

CCOC(=O)CNc1cccc(NCc2c(CC)c(CNc3cccc(C)n3)c(CC)c(CNc3cccc(C)n3)c2CC)n1 [AH29]
Feline Corona virus CC50 (CRFK cells [2]): 13.3 µg/mL | Feline Corona virus EC50 (Feline Corona virus): >4 µg/mL

Cc1ccc(O)c(NC(=O)c2cc(C(=O)Nc3cc(C)ccc3O)cc(C(=O)Nc3cc(C)ccc3O)c2)c1 [Phe-Kresol]
EC50 Influenza A H3N2 subtype MTS (Influenza A H3N2 subtype): >0.8 µg/mL | EC50 Influenza A H3N2 subtype visual CPE score (Influenza A H3N2 subtype): >0.8 µg/mL | EC50 Influenza A H1N1 subtype MTS (Influenza A H1N1 subtype): >0.8 µg/mL | EC50 Influenza A H1N1 subtype visual CPE score (Influenza A H1N1 subtype): >0.8 µg/mL | EC50 Influenza B MTS (Influenza B): >0.8 µg/mL | EC50 Influenza B visual CPE score (Influenza B): >0.8 µg/mL
